For assay [1], the target named is T1, human orexin 2 receptor (Homo sapiens (Human), UniProt O43614). The experiment in a line: Human orexin 2 receptor radioligand binding ([3H]EMPA competition, HEK293 cells). To be noted: HEK293 cells expressing human orexin-2 receptor, read-out: OR 2 Ki.
In assay [2] the target is T1, human orexin 2 receptor. Description: Human orexin 2 receptor Ca2+ mobilization assay (FLIPR, PFSK cells, orexin B 100 nM). In kind it is cell-based. The following applies: modified Cheng-Prusoff correction, read-out: OR 2 Kb.

T1 sequence (O43614 whole entry): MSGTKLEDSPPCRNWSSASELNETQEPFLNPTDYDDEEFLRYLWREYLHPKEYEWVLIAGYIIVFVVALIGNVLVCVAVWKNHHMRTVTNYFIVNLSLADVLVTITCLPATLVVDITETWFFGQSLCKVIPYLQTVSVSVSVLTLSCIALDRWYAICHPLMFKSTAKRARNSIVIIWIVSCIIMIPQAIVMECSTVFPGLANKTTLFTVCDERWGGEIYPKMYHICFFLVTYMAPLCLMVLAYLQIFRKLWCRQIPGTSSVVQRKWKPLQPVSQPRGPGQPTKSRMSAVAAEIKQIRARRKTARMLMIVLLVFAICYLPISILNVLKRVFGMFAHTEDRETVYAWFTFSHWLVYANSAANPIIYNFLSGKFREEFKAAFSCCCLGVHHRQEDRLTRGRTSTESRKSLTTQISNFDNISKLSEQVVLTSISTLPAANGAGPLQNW

In general, Ki refers to a measure of affinity in units of concentration, obtained from inhibition or displacement. As for `Cc1ccc(-c2ncccn2)c(C(=O)N2CC3CN(c4cc(N(C)C)nc(C)n4)CC3C2)n1` (centres unmarked) [Example 428, N,N,2-Trimethyl-6-{5-[(6-methyl-3-pyrimidin-2-ylpyridin-2-yl)carbonyl]hexahydropyrrolo[3,4-c]pyrrol-2(1H)-yl}pyrimidin-4-amine], on human orexin 2 receptor [1], the Ki turned out to be 244 nM. As to `O=C(c1cccc(F)c1-c1ccccn1)N1CC2CN(c3cnc4cc(F)c(F)cc4n3)CC2C1` (centres unmarked) [Example 452, 6,7-Difluoro-2-{5-[(3-fluoro-2-pyridin-2-ylphenyl)carbonyl]hexahydropyrrolo[3,4-c]pyrrol-2(1H)-yl}quinoxaline], at human orexin 2 receptor [1], the Ki is 26 nM.

As to `Cc1cc(C)nc(N2CC3CN(C(=O)c4ccc(OC(F)F)cc4-n4nccn4)CC3C2)n1` (centres unmarked) [Example 446, 2-{[4-(Difluoromethoxy)-2-(2H-1,2,3-triazol-2-yl)phenyl]carbonyl}-5-(4,6-dimethylpyrimidin-2-yl)octahydropyrrolo[3,4-c]pyrrole], the Ki at human orexin 2 receptor [1] was 72 nM.

Regarding `COc1cccc(-n2nccn2)c1C(=O)N1CC2CN(c3nc(C)cc(C)n3)CC2C1` (centres unmarked) [Example 465, 2-(4,6-Dimethylpyrimidin-2-yl)-5-{[2-methoxy-6-(2H-1,2,3-triazol-2-yl)phenyl]carbonyl}octahydropyrrolo[3,4-c]pyrrole], the Ki at human orexin 2 receptor [1] is 33 nM. As to `O=C(c1cccc(F)c1-c1cncs1)N1CC2CN(c3cnc4cc(F)c(F)cc4n3)CC2C1` (centres unmarked) [Example 454, 6,7-Difluoro-2-[5-{[3-fluoro-2-(1,3-thiazol-5-yl)phenyl]carbonyl}hexahydropyrrolo[3,4-c]pyrrol-2(1H)-yl]quinoxaline], the Ki on human orexin 2 receptor [1] is 72 nM.

For `Cc1cc(C)nc(N2CC3CN(C(=O)c4cc(F)ccc4-c4cscn4)CC3C2)n1` (centres unmarked) [Example 494, 2-(4,6-Dimethylpyrimidin-2-yl)-5-{[5-fluoro-2-(1,3-thiazol-4-yl)phenyl]carbonyl}octahydropyrrolo[3,4-c]pyrrole], on human orexin 2 receptor [1], the Ki was determined as 180 nM. For the molecule `Cc1nc(N(C)C)cc(N2CC3CN(C(=O)c4c(F)cccc4-c4ncccn4)CC3C2)n1` (centres unmarked) [Example 426, 6-{5-[(2-Fluoro-6-pyrimidin-2-ylphenyl)carbonyl]hexahydropyrrolo[3,4-c]pyrrol-2(1H)-yl}-N,N,2-trimethylpyrimidin-4-amine], the Ki on human orexin 2 receptor [1] came out at 36 nM.

On to `Cc1cccc(-c2c(F)cccc2C(=O)N2CC3CN(c4nc(C)cc(C)n4)CC3C2)n1` (centres unmarked) [Example 370, (5-(4,6-Dimethylpyrimidin-2-yl)hexahydropyrrolo[3,4-c]pyrrol-2(1H)-yl)(3-fluoro-2-(6-methylpyridin-2-yl)phenyl)methanone], for which the Kb at human orexin 2 receptor [2] is 7 nM. Still for that read-out and setting: as for `Cc1nc(N2CC3CN(C(=O)c4cccc(F)c4-n4nccn4)CC3C2)nc(C)c1C` (centres unmarked) [Example 240, (3-Fluoro-2-(2H-1,2,3-triazol-2-yl)phenyl)(5-(4,5,6-trimethylpyrimidin-2-yl)hexahydropyrrolo[3,4-c]pyrrol-2(1H)-yl)methanone], the figure is 3 nM; as for `COc1cc(OC)nc(N2CC3CN(C(=O)c4ccc(F)cc4-n4nccn4)CC3C2)n1` (centres unmarked) [Example 160, 2-(4,6-Dimethoxypyrimidin-2-yl)-5-{[4-fluoro-2-(2H-1,2,3-triazol-2-yl)phenyl]carbonyl}octahydropyrrolo[3,4-c]pyrrole], 20 nM. The same measure, in the same setting: with `Cc1ccc2ccccc2c1C(=O)N1CC2CN(c3nccc(-c4ccccc4)n3)CC2C1` (centres unmarked) [Example 25, 2-[(2-Methylnaphthalen-1-yl)carbonyl]-5-(4-phenylpyrimidin-2-yl)octahydropyrrolo[3,4-c]pyrrole] the figure was 99 nM. Same read-out and setting: with `O=C(c1ccccc1-c1cccs1)N1CC2CN(c3nccc(-c4cn[nH]c4)n3)CC2C1` (centres unmarked) [Example 62, 2-[4-(1H-Pyrazol-4-yl)pyrimidin-2-yl]-5-[(2-thiophen-2-ylphenyl)carbonyl]octahydro-pyrrolo[3,4-c]pyrrole] the figure was 40 nM; with `Cc1ccc2ccccc2c1C(=O)N1CC2CN(c3cnc4ccccc4n3)CC2C1` (centres unmarked) [Example 20, 2-{5-[(2-Methylnaphthalen-1-yl)carbonyl]hexahydropyrrolo[3,4-c]pyrrol-2(1H)-yl}quinoxaline], 129 nM; with `O=C(c1ccccc1-n1nccn1)N1CC2CN(c3nccc(-c4ccccc4)n3)CC2C1` (centres unmarked) [Example 131, 2-(4-Phenylpyrimidin-2-yl)-5-{[2-(2H-1,2,3-triazol-2-yl)phenyl]carbonyl}octahydro pyrrolo[3,4-c]pyrrole], 79 nM. In the case of `Cc1nc(N2CC3CN(C(=O)c4ncccc4-n4nccn4)CC3C2)nc(C)c1F` (centres unmarked) [Example 325, 2-(5-Fluoro-4,6-dimethylpyrimidin-2-yl)-5-{[3-(2H-1,2,3-triazol-2-yl)pyridin-2-yl]carbonyl}octahydropyrrolo[3,4-c]pyrrole], the Kb on human orexin 2 receptor [2] turned out to be 2 nM. Still for that read-out and setting: as for `O=C(c1ccccc1-c1ccccc1)N1CC2CN(c3nc4ccc(F)cc4s3)CC2C1` (centres unmarked) [Example 176, 2-[5-(Biphenyl-2-ylcarbonyl)hexahydropyrrolo[3,4-c]pyrrol-2(1H)-yl]-6-fluoro-1,3-benzothiazole], the figure is 158 nM; as for `O=C(c1cccc(F)c1-c1ncccn1)N1CC2CN(c3cnc4cc(F)c(F)cc4n3)CC2C1` (centres unmarked) [Example 387, (5-(6,7-Difluoroquinoxalin-2-yl)hexahydropyrrolo[3,4-c]pyrrol-2(1H)-yl)(3-fluoro-2-(pyrimidin-2-yl)phenyl)methanone], 9 nM.

With `Cc1cnc(C)c(N2CC3CN(C(=O)c4ccccc4-n4nccn4)CC3C2)n1` (centres unmarked) [Example 155, 2-(3,6-Dimethylpyrazin-2-yl)-5-{[2-(2H-1,2,3-triazol-2-yl)phenyl]carbonyl}octa hydropyrrolo[3,4-c]pyrrole], on human orexin 2 receptor [2], the Kb stood at 16 nM.

On to `Cc1cc(C)nc(N2CC3CN(C(=O)c4ccccc4-c4ccccn4)CC3C2)n1` (centres unmarked) [Example 69, 2-(4,6-Dimethylpyrimidin-2-yl)-5-[(2-pyridin-2-ylphenyl)carbonyl]octahydro-pyrrolo[3,4-c]pyrrole], for which the Kb on human orexin 2 receptor [2] stood at 8 nM. The same measure, in the same setting: with `CN(C)c1cc(N2CC3CN(C(=O)c4ccccc4-n4nccn4)CC3C2)nc(C(F)(F)F)n1` (centres unmarked) [Example 2, N,N-Dimethyl-6-[5-{[2-(2H-1,2,3-triazol-2-yl)phenyl]carbonyl}hexahydropyrrolo[3,4-c]pyrrol-2(1H)-yl]-2-(trifluoromethyl)pyrimidin-4-amine] the figure was 16 nM; with `Cc1noc(-c2ccccc2C(=O)N2CC3CN(c4nc(C)c(Cl)c(C)n4)CC3C2)n1` (centres unmarked) [Example 318, 2-(5-Chloro-4,6-dimethylpyrimidin-2-yl)-5-{[2-(3-methyl-1,2,4-oxadiazol-5-yl)phenyl]carbonyl}octahydropyrrolo[3,4-c]pyrrole], 3 nM; with `CN(C)c1nc(N2CC3CN(C(=O)c4c(F)cccc4-c4ncccn4)CC3C2)cc(C(F)(F)F)n1` (centres unmarked) [Example 116, 4-{5-[(2-Fluoro-6-pyrimidin-2-ylphenyl)carbonyl]hexahydropyrrolo[3,4-c]pyrrol-2(1H)-yl}-N,N-dimethyl-6-(trifluoromethyl)pyrimidin-2-amine], 13 nM. Still for that read-out and setting: as for `Cc1cc(N2CC3CN(C(=O)c4ccccc4-n4nccn4)CC3C2)nc(C(F)(F)F)n1` (centres unmarked) [Example 97, 2-[6-Methyl-2-(trifluoromethyl)pyrimidin-4-yl]-5-{[2-(2H-1,2,3-triazol-2-yl)phenyl]carbonyl}octahydropyrrolo[3,4-c]pyrrole], the figure is 16 nM; as for `Cc1ccnc(-c2c(F)cccc2C(=O)N2CC3CN(c4nc(C)cc(C)n4)CC3C2)c1` (centres unmarked) [Example 373, (5-(4,6-Dimethylpyrimidin-2-yl)hexahydropyrrolo[3,4-c]pyrrol-2(1H)-yl)(3-fluoro-2-(4-methylpyridin-2-yl)phenyl)methanone], 5 nM.

`CCOc1ccc2ccccc2c1C(=O)N1CC2CN(c3cnc4ccccc4n3)CC2C1` (centres unmarked) [Example 145, 2-{5-[(2-Ethoxynaphthalen-1-yl)carbonyl]hexahydropyrrolo[3,4-c]pyrrol-2(1H)-yl}quinoxaline]: on human orexin 2 receptor [2], the Kb stood at 32 nM.

With `Cc1cncc(N2CC3CN(C(=O)c4ccc(F)cc4-n4nccn4)CC3C2)n1` (centres unmarked) [Example 158, 2-{[4-Fluoro-2-(2H-1,2,3-triazol-2-yl)phenyl]carbonyl}-5-(6-methylpyrazin-2-yl)octahydropyrrolo[3,4-c]pyrrole], on human orexin 2 receptor [2], the Kb was determined as 8 nM.

For the molecule `Cc1cc(C)nc(N2CC3CN(C(=O)c4ccccc4-c4cccs4)CC3C2)n1` (centres unmarked) [Example 43, 2-(4,6-Dimethylpyrimidin-2-yl)-5-[(2-thiophen-2-ylphenyl)carbonyl]octahydro-pyrrolo[3,4-c]pyrrole], the Kb at human orexin 2 receptor [2] is 10 nM. `CN(C)c1nc(N2CC3CN(C(=O)c4ccc(F)cc4-n4nccn4)CC3C2)cc(C(F)(F)F)n1` (centres unmarked) [Example 111, [5-(2-Dimethylamino-6-trifluoromethyl-pyrimidin-4-yl)-hexahydro-pyrrolo[3,4-c]pyrrol-2-yl]-(4-fluoro-2-[1,2,3]triazol-2-yl-phenyl)-methanone]: on human orexin 2 receptor [2], the Kb worked out at 16 nM.

For the molecule `Cc1cc(N(C)C)nc(N2CC3CN(C(=O)c4ccccc4-n4nccn4)CC3C2)n1` (centres unmarked) [Example 119, N,N,6-Trimethyl-2-[5-{[2-(2H-1,2,3-triazol-2-yl)phenyl]carbonyl}hexahydropyrrolo[3,4-c]pyrrol-2(1H)-yl]pyrimidin-4-amine], the Kb on human orexin 2 receptor [2] came out at 13 nM.

For the molecule `Cc1cc(C)nc(N2CC3CN(C(=O)c4ccc(F)c5ccccc45)CC3C2)n1` (centres unmarked) [Example 90, 2-(4,6-Dimethylpyrimidin-2-yl)-5-[(4-fluoronaphthalen-1-yl)carbonyl]octahydro-pyrrolo[3,4-c]pyrrole], the Kb on human orexin 2 receptor [2] amounted to 25 nM.

As to `CCOc1ccc2ccccc2c1C(=O)N1CC2CN(c3nc(C)cc(C)n3)CC2C1` (centres unmarked) [Example 77, 2-(4,6-Dimethylpyrimidin-2-yl)-5-[(2-ethoxynaphthalen-1-yl)carbonyl]octahydro-pyrrolo[3,4-c]pyrrole], the Kb on human orexin 2 receptor [2] was 16 nM. On the same count and under the same terms, with `Cc1ccc(-c2ncccn2)c(C(=O)N2CC3CN(c4nc(C)cnc4C)CC3C2)c1` (centres unmarked) [Example 103, 2-(3,6-Dimethylpyrazin-2-yl)-5-[(5-methyl-2-pyrimidin-2-ylphenyl)carbonyl]octahydropyrrolo[3,4-c]pyrrole] the figure was 32 nM.

Values taken from patent publication US9586962B2, “Disubstituted octahydropyrrolo [3,4-C] pyrroles as orexin receptor modulators” (Janssen Pharmaceutica NV, priority 2011, dated 2017).
